Results on six compounds are retold here after US8084621B2, “3-Pyrrolo[b]cyclohexylene-2-dihydroindolinone derivatives and uses thereof” (Jiangsu Simcere Pharmaceutical R&D Co. Ltd., priority 2006, dated 2011).

Common to all, as to type: cell-based
Assay [1] deals with Human Hepatocellular Carcinoma Cell Line (HEPG2). The assay is described as follows: Tumor cell proliferation assay (MTT), HEPG2. The settings on record: for inhibition at 10 µM: concentration of 10^−5 mol/L, preliminary screening, 72 hours, read-out: Inhibition rate % HEPG2; for IC50: secondary screening, 48 hours. The text has this: (§1) The assay used generally is the blue tetrazolium bromide (MTT) method. […] The amount of formazan can be detected by the microplate reader through the absorption value at 570 nm. The amount of formazan product generated is proportional to the number of living cells in the sample, so the OD value may reflect the number of living cells and the ability of a test drug to inhibit or kill cells. The MTT assay may be used in determining the ability of different compounds of the present invention to inhibit one or more cancer cells proliferation. Similar assays can be designed along the same lines for any cancer cell using techniques well known in the art.
(§2) The assay used generally is the blue tetrazolium bromide (MTT) method. […] Intracellular purple formazan salt crystals can be solved in DMSO and the absorption value at 570 nm is detected by the microplate reader, then the number of living cells can be detected indirectly. So MTT assay may be used to determine the ability of a compound of the present invention to inhibit cell proliferation. Similar assays can be designed along the same lines for any cancer cell using techniques well known in the art.
2.2.8 Human Hepatocellular Carcinoma Cell Line (HEPG2);
The cells of 2.2.8, 2.2.9 cultured in DMEM/High glucose medium containing 12% calf serum in the condition of 37° C., 5% CO2.
(§3) 2.3.1 Cell seeding: Trypsinize the cell by 0.05% trypsin-EDTA and add RPMI 1640 medium (DMEM or 5A) containing 12% calf serum. Count the number, then dilute to 1.67×10^4/ml. Add 180 ul/well to the 96 well plate (3000 cells/well).
(§4) 2.3.2 Culture: cells are incubated for 24 hours at 37° C. under 5% CO2.
(§5) 2.3.3 Preliminary screening: The compounds are firstly diluted to 0.1 mol/L with DMSO, and then diluted to three concentrations of 10^−5 mol/L, 10^−6 mol/L and 10^−7 mol/L. Add 20 ul test compounds to the 96 well plate and incubate for 72 hours. Each group has three parallel wells and all experiments repeat three times. Each inhibition ratio is calculated, then an average value of three times is taken as the measured value. 2.3.4 Staining 2.3.4.1 Attached cell: add 20 ul/well MTT to the 96-well plates; incubate for 4 hours in the incubator. Pour out the culture medium in the well and add 100 ul/well DMSO. Shake the plate for 5 min. 2.3.4.2 Suspension cell: add 20 ul/well MTT to the 96-well plates; incubate for 4 hours in the incubator. Add 50 ul/well 20% SDS and incubate for overnight in the incubator. 2.3.5 Reading the plates: read the absorbance A570-A630 with the Infinite M200 microtiter plate reader. Calculate the inhibition ratio of the test compounds. 2.3.6 Secondary screening: the compounds whose inhibition ratio is greater than 50% at the concentrations of 10^−5 mol/L in the preliminary screening will be picked out for Secondary screening. Dilute these compounds to ten concentrations: 10^−5 mol/L, 0.5×10^−5 mol/L, 10^−6 mol/L, 0.8×10^−6 mol/L, 0.6×10^−6 mol/L, 0.4×10^−6 mol/L, 0.2×10^−6 mol/L, 10^−7 mol/L, 0.8×10^−7 mol/L and 0.4×10^−7 mol/L. Add 20 ul test compound solution to the 96 well plate and incubate for 48 hours. Each group has three parallel wells and all experiments repeat for three times. Read the plates and calculate the inhibition ratio according to the preliminary screening method. 2.3.7 Calculate the Inhibition Ratio of Cell Proliferation and the IC50
(§6) According to the inhibition ratio of cell proliferation at the different concentrations of the compound, inhibition ratio of 50% of the test compound is calculated through the logarithm of the concentration of the compound with the Logit [I] linear regression, and an average value of three times is taken as the measured value of a sample.

Assay [2] has as its system Human Non-Small Cell Lung Cancer Cell Line (A549). The assay is described as follows: Tumor cell proliferation assay (MTT), A549. The conditions noted are these: for inhibition at 10 µM: concentration of 10^−5 mol/L, preliminary screening, 72 hours, read-out: Inhibition rate % A549; for IC50: secondary screening, 48 hours.
Description: as §1, §2
2.2.2 Human Non-Small Cell Lung Cancer Cell Line (A549)
(§7) The cells of the 2.2.1, 2.2.2, 2.2.3, 2.2.4, 2.2.5 cultured with RPMI 1640 containing 12% calf serum in the condition of 37° C., 5% CO2.
as §3, §4, §5, §6

Assay [3] deals with Human Pancreatic Carcinoma Cell Line (BXPC-3). The assay is described as follows: Tumor cell proliferation assay (MTT), BXPC-3. The settings on record: for inhibition at 10 µM: concentration of 10^−5 mol/L, preliminary screening, 72 hours, read-out: Inhibition rate % BXPC-3; for IC50: secondary screening, 48 hours.
Description: as §1, §2
2.2.6 Human Pancreatic Carcinoma Cell Line (BXPC-3);
(§8) The cells of 2.2.6, 2.2.7 cultured in RPMI 1640 medium containing 12% fetal bovine serum in the condition of 37° C., 5% CO2.
as §3, §4
as §5, with “2.3.6 Secondary screening: the compounds whose inhibition ratio is greater than 50% at the concentrations of 10^−5 mol/L in the preliminary screening will be picked out for Secondary screening.” left out
as §6

The test system of assay [4] is Human Gastric Cancer Cell Line (BGC). The assay is described as follows: Tumor cell proliferation assay (MTT), BGC. The settings on record: for inhibition at 10 µM: concentration of 10^−5 mol/L, preliminary screening, 72 hours, read-out: Inhibition rate % BGC; for IC50: secondary screening, 48 hours.
Description: as §1, §2
2.2.1 Human Gastric Cancer Cell Line (BGC)
as §7, §3, §4, §5, §6

For assay [5], the system named is Human Bladder Cancer Cell Line (T24). The assay is described as follows: Tumor cell proliferation assay (MTT), T24. The conditions noted are these: for inhibition at 10 µM: concentration of 10^−5 mol/L, preliminary screening, 72 hours, read-out: Inhibition rate % T24; for IC50: secondary screening, 48 hours.
Description: as §1, §2
2.2.7 Human Bladder Cancer Cell Line (T24);
as §8, §3, §4, §5, §6

Assay [6] has as its system Human Colon Cancer Cell Line (HT-29). The assay is described as follows: Tumor cell proliferation assay (MTT), HT29. The conditions noted are these: for inhibition at 10 µM: concentration of 10^−5 mol/L, preliminary screening, 72 hours, read-out: Inhibition rate % HT29; for IC50: secondary screening, 48 hours.
Description: as §1, §2
2.2.11 Human Colon Cancer Cell Line (HT-29);
(§9) The cells of 2.2.11, 2.2.12, 2.2.13 were cultured in MC COYS 5-A medium containing 12% fetal bovine serum in the condition of 37° C., 5% CO2.
as §3, §4
as §5, with “2.3.6 Secondary screening: the compounds whose inhibition ratio is greater than 50% at the concentrations of 10^−5 mol/L in the preliminary screening will be picked out for Secondary screening.” left out
as §6

For assay [7], the system named is Human Pancreatic Carcinoma Cells (PANC-1). The assay is described as follows: Tumor cell proliferation assay (MTT), PANC-1. The settings on record: for inhibition at 10 µM: concentration of 10^−5 mol/L, preliminary screening, 72 hours, read-out: Inhibition rate % PANC-1; for IC50: secondary screening, 48 hours.
Description: as §1, §2
2.2.4 Human Pancreatic Carcinoma Cells (PANC-1)
as §7, §3, §4, §5, §6

Assay [8] has as its system Human Colon Cancer Cell Line (CACO-2). The assay is described as follows: Tumor cell proliferation assay (MTT), CACO-2. The settings on record: concentration of 10^−5 mol/L, preliminary screening, 72 hours, read-out: Inhibition rate % CACO-2.
Description: as §1, §2
2.2.10 Human Colon Cancer Cell Line (CACO-2)
The cell of 2.2.10 cultured in DMEM/High glucose medium containing 12% fetal bovine serum in the condition of 37° C., 5% CO2.
as §3, §4, §5, §6

The test system of assay [9] is Human Ovarian Cancer Cell Line (SK-OV-3). The assay is described as follows: Tumor cell proliferation assay (MTT), SK-OV-3. The settings on record: for inhibition at 10 µM: concentration of 10^−5 mol/L, preliminary screening, 72 hours, read-out: Inhibition rate % SK-OV-3; for IC50: secondary screening, 48 hours.
Description: as §1, §2
2.2.13 Human Ovarian Cancer Cell Line (SK-OV-3).
as §9, §3, §4, §5, §6

Assay [10] deals with Human Small Cell Lung Cancer Cell Line (NCI-H446). The assay is described as follows: Tumor cell proliferation assay (MTT), NCI-H446. The settings on record: for inhibition at 10 µM: concentration of 10^−5 mol/L, preliminary screening, 72 hours, read-out: Inhibition rate % NCI-H446; for IC50: secondary screening, 48 hours.
Description: as §1, §2
2.2.5 Human Small Cell Lung Cancer Cell Line (NCI-H446)
as §7, §3, §4, §5, §6

Usually inhibition stands for how much of the control response was suppressed. One may read the IC50 as the concentration needed to halve the response being measured. A lower IC50 goes with inhibition by little substance.

On to `Cc1[nH]c2c(c1C(=O)N1CCOCC1)CCC/C2=C1/C(=O)Nc2ccc(F)cc21` [I-10, 2-methyl-3-(morpholine-4-carbonyl)-7-[1,2-dihydro-5-fluoro-2-oxo-3H-indol-(Z)-3-ylidene]-4,5,6,7-tetrahydro-1H-indole], for which the inhibition at 10 µM in [1] amounted to 43.5%; in [2], 7.64%; in [3] it was 51.7%; in [4] it was 15.2%; in [5], 27.5%; in [6], 30.9%. The inhibition at 10 µM in assay [7] worked out at 11.7%; in assay [8] it was 0%.
As for `Cc1[nH]c2c(c1C(=O)N1CCOCC1)CCC/C2=C1/C(=O)Nc2ccc(Cl)cc21` [I-11, 2-methyl-3-(morpholine-4-carbonyl)-7-[1,2-dihydro-5-chloro-2-oxo-3H-indol-(Z)-3-ylidene]-4,5,6,7-tetrahydro-1H-indole], the inhibition at 10 µM was determined as 2.92% in assay [1] and 0% in [5].
For `Cc1[nH]c2c(c1C(=O)N(C)C)CCC/C2=C1/C(=O)Nc2ccccc21` [I-15, N,N,2-trimethyl-7-[1,2-dihydro-2-oxo-3H-indol-(Z)-3-ylidene]-4,5,6,7-tetrahydro-1H-indole-3-carboxamide], the inhibition at 10 µM in assay [1] came to 61.1%; in [5], 74.8%.
With `CCN(CC)CC(O)CNC(=O)c1c(C)[nH]c2c1CCC/C2=C1/C(=O)Nc2ccc(Cl)cc21` (stereo not shown) [I-65, N-(3-(diethylamino)-2-hydroxypropyl)-2-methyl-7-[1,2-dihydro-5-chloro-2-oxo-3H-indol-(Z)-3-ylidene]-4,5,6,7-tetrahydro-1H-indole-3-carboxamide], the inhibition at 10 µM in assay [1] was 100%; in [2], 85%; in [3], 99.2%; in assay [4] it was 91.1%; in [5], 97.9%; in [6], 98.3%. The values for the inhibition at 10 µM in assay [7], in [9] and in [10] were 98.1%, 95.7% and 99%, respectively. In addition, the IC50 came to 2800 nM in assay [1]; 2380 nM in assay [2]; 1150 nM in assay [3]; 1720 nM in [4]; 2730 nM in assay [5]; 3060 nM in assay [6]. Also, the IC50 in assay [7] came out at 1670 nM; in [9], 2230 nM; in assay [10] it was 1500 nM.
With `Cc1[nH]c2c(c1C(=O)NCC(O)CN1CCCCC1)CCC/C2=C1/C(=O)Nc2ccc(Cl)cc21` (stereo not shown) [I-75, N-(2-hydroxy-3-(piperidin-1-yl)propyl)-2-methyl-7-[1,2-dihydro-5-chloro-2-oxo-3H-indol-(Z)-3-ylidene]-4,5,6,7-tetrahydro-1H-indole-3-carboxamide], the inhibition at 10 µM was determined as 99% in assay [1]; 40.1% in assay [2]; 73.1% in [3]; 45.4% in assay [4]; 99.9% in assay [5]; 67.3% in assay [6]. Moreover, the figures for the inhibition at 10 µM in assay [7], in assay [9] and in assay [10] were 53.6%, 49.2% and 44.1%, respectively. Besides, the IC50 in [1] is 3590 nM; in assay [2] it was 14500 nM; in assay [3], 4470 nM; in assay [4], 11100 nM; in assay [5] it was 3990 nM; in [6], 5170 nM. The IC50 came to 3580 nM in assay [7], 5690 nM in [9] and 9250 nM in assay [10].
`Cc1ccc2c(c1)/C(=C1\CCCc3c1[nH]c(C)c3C(=O)NCC(O)CN(C)C1CCCCC1)C(=O)N2` (stereo not shown) [I-79, N-[3-(cyclohexyl(methyl)amino)-2-hydroxypropyl]-2-methyl-7-[1,2-dihydro-5-methyl-2-oxo-3H-indol-(Z)-3-ylidene]-4,5,6,7-tetrahydro-1H-indole-3-carboxamide]: the inhibition at 10 µM in assay [2] stood at 63.3%; in assay [3], 99%; in assay [4], 81%; in assay [6], 98.2%; in assay [7], 96.8%; in [9] it was 96%. The IC50 in [2] was determined as 2840 nM; in [3], 840 nM; in [4], 2280 nM; in assay [6], 2320 nM; in assay [7] it was 3990 nM; in assay [9], 1510 nM. Further, in assay [10], it took 3260 nM to reach half-maximal inhibition (IC50).
